Measured values from patent publication US20210308289A1, “INACTIVATION OF HIGHLY RESISTANT INFECTIOUS MICROBES AND PROTEINS WITH UNBUFFERED HYPOHALOUS ACID COMPOSITIONS” (BRIOTECH, INC., priority 2016, published 2021).

What was measured:
[1] = tested on: spores of Bacillus subtilis; assay: Inactivation of Bacillus subtilis spores by HOBr and HOCl; format: cell-based
infectious proteins = format: biochemical
[2] = in solution; cited from earlier work
[3] = Application to human skin and mucous membranes; conditions: freshly prepared from HOCl containing 200 ppm of Cl

| Compound | LRV ([1]; HOBr approximately 25 ppm, 20 seconds) | inactivation of infectious proteins (infectious proteins) | pKa [2] | adverse effects on epithelial surfaces [3] | effect on Bacillus spores ([1]; HOCl 25 ppm, 20 seconds of contact) | LRV ([1]; HOCl 230 ppm, 20 seconds) | LRVs ([1]; HOCl below 230 ppm, 20 seconds) |
| --- | --- | --- | --- | --- | --- | --- | --- |
| OBr [HOBr, hypobromous acid] | 6 | comparable levels to those achieved using HOCl | higher than HOCl | without any indication of adverse effects | – | – | – |
| OCl [HOCl, hypochlorous acid] | – | – | about 7.5 | – | no detectable effect | 6 | 2-4 |
